Where two headings read alike, the source gives them in different places.
Columns and labels:
sexually mature cats = experiment: Example 16: injection into testes of sexually mature cats; assay type: in vivo, cat
Procedure: Those animals in Group I were injected in each testis with 0.1 ml of water.
The testosterone level for the cats in Group I was 6.8±0.2 ng/ml, for those in Group II 4.1±0.3 ng/ml and less than 1 ng/ml for those in Group III.

purebred Angus bulls = experiment: Example 17: injection into testes of Angus bulls, rate of gain and carcass quality; assay type: in vivo, cattle; conditions: for BODY WEIGHT Final: after one year; for BODY WEIGHT Final / % Fat / % Protein / Rate of Gain: III 500.0 mg tannic acid, IV 500.0 mg ZnSO4.7H2 O, V 250.0 mg + 250.0 mg; for % Fat / % Protein / Rate of Gain / rate of gain vs surgically castrated animals: one year; for Rate of Gain: surgically castrated 1.29; for rate of gain vs surgically castrated animals: vs Group II surgically castrated
Procedure: Ten purebred Angus bulls weighing an average of 400 pounds were divided into five groups, Group I being a control. Each animal in Group I was injected with 5.0 ml of water in each testis. Those in Group II were surgically castrated. The animals in Group III were injected with 500.0 mg of tannic acid, those in Group IV with 500.0 mg of ZnSO4.7H2 O and those in Group V with 250.0 mg of tannic acid and 250.0 mg of ZnSO4.7H2 O.
The animals were fed concentrate and grazed. After one year, they were sacrificed.

weaned male rats = experiment: Example 12: injection into testes of weaned 30-day old rats; conditions: 60 days, per testis: II 5.0 mg ZnSO4.7H2 O, III 5.0 mg tannic acid, IV 2.5 mg + 2.5 mg
Procedure: Two hundred 30-day old male rats, just weaned, were divided into four groups, Group I being a control. The rats in Group I were injected with 0.05 ml of water into each testis. The rats in Group II were similarly injected with 5.0 mg of ZnSO4.7H2 O, those in Group III with 5.0 mg of tannic acid and those in Group IV with a mixture (Kastrin) containing 2.5 mg tannic acid and 2.5 mg ZnSO4.7H2 O.
Forty of the animals were sacrificed 60 days after treatment. The others were watched for a year.

[1] = test system: litter mate dogs, 8 weeks old; experiment: Example 13: injection into testes of 8 weeks old litter mate dogs; conditions: Group II, 20.0 mg tannic acid buffered to pH 6.5 into each testis
Procedure: Thirty-eight litter mate dogs, 8 weeks old, were divided into four groups. The dogs in Group I were a control and were injected with 0.2 ml of water into each testis. The animals in Group II were similarly treated in each testis with 20.0 mg of tannic acid buffered to a pH of 6.5. Those in Group III were treated with 20 mg of ZnSO4.7H2 O and those in Group IV with a mixture of 10 mg of tannic acid and 10 mg of ZnSO4.7H2 O.

human spermatozoa = conditions: cited from earlier work
[2] = test system: male reproduction of sexually mature rats; experiment: Example 5: zinc sulfate injected into the testes of sexually mature rats; assay type: in vivo; conditions: rat, 0.5, 2.5 and 5.0 mg into the testes
Source text: Such injection was made into the midline of each testis with a sterilized needle.

spermatogenesis / testis = experiment: General findings: arrest of spermatogenesis and diffusion of zinc after injection into testis; assay type: in vivo; conditions: astringent zinc sulfate, injected in testis
Procedure: Recommended dosages, as above mentioned, depend upon the size and species of the animal and upon the desired result. Recommended dosages for sterilization of adult dogs weighing less than 10 kg is 0.25 ml into each testis of a mixture containing between 10.0 and 25.0 mg of tannic acid and 25.0 mg of ZnSO4.7H2 O. For dogs weighing between 10 and 15 kg, the recommended dose is 0.5 ml into each testis of a mixture containing between 10.0 and 50.0 mg of tannic acid and 50.0 mg of ZnSO4.7H2O. For those dogs weighing between 16 and 20 kg, the recommended dose is 1.0 ml into each testis of a mixture containing between 50.0 and 100.0 mg of tannic acid and between 75.0 and 100.0 mg of ZnSO4.7H2 O. For dogs weighing over 20 kg, the recommended dose is 1.0 ml in each testis of a mixture containing between 50.0 and 125.0 mg of tannic acid and 125.0 mg of ZnSO4.7H2 O.
In the case of puppies between 6 and 8 weeks of age, the recommended dose is 0.05 ml into each testis of a mixture containing 2.0 mg of tannic acid and 5.0 mg of ZnSO4.7H2 O. For puppies over 8 weeks but not sexually mature, the dose is preferably 0.08 ml into each of the testes of a mixture containing 7.0 mg of tannic acid and 7.0 mg of ZnSO4.7H2 O. For adult cats, the recommended dose is 0.1 ml into each testis of a mixture containing 10.0 mg of tannic acid and 10.0 mg of ZnSO4.7H2 O. […]

[3] = test system: male reproduction of sexually mature rats; conditions: rat
Procedure: This example illustrates the effect of zinc sulfate on male reproduction of sexually mature rats when administered orally.
Three hundred sexually mature rats were divided into three groups, Group I being a control. Group II rats were treated daily with 15.0 mg ZnSO4.7H2 O and Group III rats with 50.0 mg, both groups receiving said treatment for 30 days.
(§1) ZnSO4 solution was made up from ZnSO4 . 7H2 O salt.
Therefore 15 and 50 mgZnSO4 . 7H2 O correspond to 8.42 mg, 28.0

[4] = test system: male reproduction of sexually mature rats; conditions: rat; for Testosterone ng/ml serum / Epididymis weight / Prostate weight / Seminal Vesicles weight / Testes weight: i.p.; for Epididymis weight / Prostate weight / Seminal Vesicles weight / Testes weight: sacrificed at 60 days
Procedure: This example illustrates the effect of zinc sulfate on male reproduction of sexually mature rats when administered intraperitoneally.
Four hundred sexually mature rats were divided into four groups, Group I being a control. The rats in Groups II, III and IV were treated daily for 30 days, respectively, with 0.5, 1.0 and 5.0 mg ZnSO4.7H2 O. At the end of 60 days, as in Example 1, the rats were sacrificed.
as §1
Therefore 0.5 mg, 1.0 mg and 5.0 mg ZnSO4 . 7H2 O correspond to
0.28 mg, 0.56 mg and 2.81 mg ZnSO4 respectively.

[5] = test system: male reproduction in sexually mature rats; conditions: rat
Procedure: One hundred sexually mature rats were divided into two groups, Group I being a control. Each of the Group II rats was injected with 25 mg ZnSO4.7H2 O into each side of the scrotum.
*Animals were sacrificed 60 days after

[6] = test system: male reproduction of sexually mature rats
Procedure: This example illustrates the effect of zinc sulfate on male reproduction of sexually mature rats when administered in the vas diferens.
Eighty sexually mature male rats were divided into four groups, Group I being a control. The rats in Groups II, III and IV were treated by injecting 0.5, 2.5 and 5.0 mg ZnSO4.7H2 O into the vas diferens.
At the end of 60 days, as in the other examples, the rats were sacrificed.

[7] = oral, 15 mg ZnSO4.7H2 O daily 30 days
[8] = oral, 50 mg ZnSO4.7H2 O daily 30 days
[9] = oral, 15.0 and 50.0 mg daily 30 days
[10] = 0.5 mg ZnSO4.7H2 O daily 30 days
[11] = 1.0 mg ZnSO4.7H2 O daily 30 days
[12] = 5.0 mg ZnSO4.7H2 O daily 30 days
[13] = i.p., 0.5, 1.0 and 5.0 mg daily 30 days
[14] = 25 mg ZnSO4.7H2 O into each scrotum, 60 days after
[15] = 25 mg ZnSO4.7H2 O into each scrotum, 60 days after, p<0.001 vs control
[16] = 25 mg into each side of the scrotum
[17] = 25 mg into each side of the scrotum, FIGS. 1 and 2
[18] = rat, 0.5, 2.5 and 5.0 mg into the vas deferens, 60 days

tannic acid
sperm count (sexually mature cats; cats, one week, per testis II 10.0 mg tannic acid pH 6.8, III 5.0 mg tannic acid + 5.0 mg ZnSO4.7H2 O, control 230×10^6 /ml): zero
behaviour / male aggressiveness (sexually mature cats; cats, II 10.0 mg tannic acid, III 5.0 mg + 5.0 mg per testis): acted normally
testosterone level (sexually mature cats; cats, II 10.0 mg tannic acid, III 5.0 mg + 5.0 mg per testis, control 6.8±0.2 ng/ml): 4.1 ± 0.3 ng/mL
weight gain (sexually mature cats; in vivo): None of the animals in Groups II or III gained any more weight than those in Group I
BODY WEIGHT Final (purebred Angus bulls): 826
% Fat (purebred Angus bulls): 18.0%
% Protein (purebred Angus bulls): 18.3%
Rate of Gain (purebred Angus bulls): 1.40 lbs/day
rate of gain vs surgically castrated animals (purebred Angus bulls): faster rate of gain than the surgically castrated animals
Epididymis weight (weaned male rats): 0.31 ± 0.07 gm
Prostate weight (weaned male rats): 0.10 ± 0.05 gm
Seminal Vesicles Wt. (weaned male rats): 0.14 ± 0.04 gm
Testes weight (weaned male rats): 0.46 ± 0.12 gm
muscular appearance [1]: better muscular appearance than those in the control group

[Zn] [zinc]
toxic effects on human spermatozoa (human spermatozoa; under certain conditions): can exert toxic effects on human spermatozoa
sperm motility (human spermatozoa; zinc 5 μg/ml (0.075 mM), without albumin): markedly inhibited sperm motility
sperm motility (human spermatozoa; zinc 50 μg/ml (0.75 mM), with 4% albumin): only slightly inhibited sperm motility

O=S(=O)([O-])[O-].[Zn+2] [zinc sulfate]
testosterone level [2]: decrease in the testosterone level
pregnancy of females mated ([2]; mated with females in heat): No pregnancy resulted
weight of the male reproductive organs ([2]; reduction increased with the dose): significant reduction in the weight of the male reproductive organs
BODY WEIGHT Final (purebred Angus bulls): 910
% Fat (purebred Angus bulls): 20.9%
% Protein (purebred Angus bulls): 17.9%
Rate of Gain (purebred Angus bulls): 1.54 lbs/day
rate of gain vs surgically castrated animals (purebred Angus bulls): faster rate of gain than the surgically castrated animals
diffusion of zinc beyond epididymis and prostate (spermatogenesis / testis): no diffusion beyond that
diffusion of zinc to the epididymis and prostate (spermatogenesis / testis): some diffusion of the zinc to the epididymis and prostate
Epididymis weight [3, 7]: 0.94 ± 0.03 gm
Prostate weight [3, 7]: 0.44 ± 0.03 gm
Seminal Vesicles weight [3, 7]: 0.73 ± 0.04 gm
Testes weight [3, 7]: 2.88 ± 0.17 gm
Testosterone ng/ml serum [3, 7]: 6.25 ± 1.68 ng/mL
Epididymis weight [3, 8]: 0.91 ± 0.04 gm
Prostate weight [3, 8]: 0.42 ± 0.02 gm
Seminal Vesicles weight [3, 8]: 0.78 ± 0.04 gm
Testes weight [3, 8]: 2.94 ± 0.13 gm
Testosterone ng/ml serum [3, 8]: 6.57 ± 0.58 ng/mL
histological changes in the male reproductive organs [3, 9]: No histological changes were observed
testosterone levels [3, 9]: no change was noted in testosterone levels
weight of the testes, epididymis, prostate or seminal vesicles [3, 9]: no significant change in the weight of the testes, epididymis, prostate or seminal vesicles
impregnation of females in heat ([3]; treated orally, mated with females in heat): impregnated the females
Testosterone ng/ml serum [4, 10]: 6.79 ± 1.34 ng/mL
Epididymis weight [4, 10]: 0.90 ± 0.02 gm
Prostate weight [4, 10]: 0.42 ± 0.04 gm
Seminal Vesicles weight [4, 10]: 0.72 ± 0.04 gm
Testes weight [4, 10]: 2.94 ± 0.03 gm
Testosterone ng/ml serum [4, 11]: 6.87 ± 0.58 ng/mL
Epididymis weight [4, 11]: 0.90 ± 0.02 gm
Prostate weight [4, 11]: 0.46 ± 0.03 gm
Seminal Vesicles weight [4, 11]: 0.74 ± 0.04 gm
Testes weight [4, 11]: 3.05 ± 0.07 gm
Testosterone ng/ml serum [4, 12]: 6.30 ± 0.68 ng/mL
Epididymis weight [4, 12]: 0.88 ± 0.04 gm
Prostate weight [4, 12]: 0.41 ± 0.02 gm
Seminal Vesicles weight [4, 12]: 0.89 ± 0.07 gm
Testes weight [4, 12]: 2.74 ± 0.13 gm
histological changes in the sex organs [4, 13]: no histological changes were observed in the sex organs
testosterone level [4, 13]: testosterone level was not changed
weight of the testes, epididymis, prostate or seminal vesicles [4, 13]: no significant reduction in the weight of the testes, epididymis, prostate or seminal vesicles
impregnation of females in heat ([4]; treated intraperitoneally, mated with females in heat): impregnated the females
Prostate weight [5, 14]: 0.82 ± 0.06 gm
Seminal Ves weight [5, 14]: 1.20 ± 0.02 gm
Epididymis weight [5, 15]: 0.56 ± 0.06 gm
Testes weight [5, 15]: 1.42 ± 0.09 gm
weight of the prostate and seminal vesicles [5, 16]: no difference, however, in the weight of the prostate and seminal vesicles
weight of the testes and epididymis [5, 16]: significant reduction in the weight of the testes and epididymis
pregnancy of females mated ([5]; 25 mg into each side of the scrotum, mated with females in heat): No pregnancy resulted
testosterone levels ([5]; 25 mg into each side of the scrotum, vs control): no significant reduction in testosterone levels
condition of the Leydig cells (histology of the testes) [5, 17]: no difference in the condition of the Leydig cells
condition of the sex cells (histology of the testes) [5, 17]: significant change in the condition of the sex cells
impregnation of females ([6]; rat, 5.0 mg ZnSO4.7H2 O in the vas deferens, mated with females in heat): did not impregnate the females
effect on spermatogenesis [6, 18]: no effect on spermatogenesis
weight of the testes, prostate or seminal vesicles [6, 18]: no significant change in the weight of the testes, prostate or seminal vesicles
pregnancy of females mated ([6]; rat, 0.5 and 2.5 mg ZnSO4.7H2 O in the vas deferens, mated with females in heat): Pregnancy also occurred
Epididymis weight (weaned male rats): 0.10 ± 0.03 gm
Prostate weight (weaned male rats): 0.05 ± 0.02 gm
Seminal Vesicles Wt. (weaned male rats): 0.05 ± 0.02 gm
Testes weight (weaned male rats): 0.21 ± 0.04 gm

Reference: patent US4156427A, “Injectable male animal sterilant for selectively controlling the function of testes” (priority 1977, dated 1979)
